# Laboratory results: paper PMC9854712 (Antioxidants, 2023)
# How the values were obtained:
# HTB-54 cells = test: MTT cell viability assay, HTB-54; assay type: cell-based; conditions: HTB-54; 10 µM, 48 h, MTT; read-out: Cell growth % at 10 µM, HTB-54
# Procedure: (§1) The cell lines were obtained from the American Type Culture Collection (ATCC). Five tumor cell lines (MDA-MB-231, MCF-7, HCT116, HTB-54, and DU-145) and two non-tumorigenic cells (184B5 and BEAS-2B) were grown in RPMI 1640 medium (Gibco), and the HT-29 tumor cell line was grown in McCoy’s medium. Both mediums were supplemented with 10% fetal bovine serum (FBS; Gibco) and 1% antibiotics (10.00 units/mL penicillin and 10.00 μg/mL streptomycin; Gibco). Cells were preserved in tissue culture flasks at 37 °C and 5% CO2. The culture medium was replaced every three days.
# (§2) The effect of each compound on cell viability was tested using the MTT assay. […] Selected compounds were then tested at seven different concentrations (0.5–100 μM) in MCF-7, HCT116, HT-29, HTB-54, 184B5 and BEAS-2B cells. Cells were seeded at 10^4 per well onto flat-bottomed 96-well culture plates. They were treated with either DMSO or increasing concentration of the corresponding compound for 48 h. Then, they were incubated with 20 μL of 3-(4,5-dimethylthiazol-2-yl)-2,5-diphenyltetrazolium bromide (MTT) (2 mg /mL stock; Aldrich) for 2,5 h and analyzed for their ability to generate a purple formazan dye. These formazan crystals were dissolved in 50 μL of DMSO. The absorbance was measured at a wavelength of 550 nm and the ratio of viable cells was calculated.
# (§3) Results are expressed as cell viability % at 10 μM. Selectivity index were calculated as the ratio of the IC50 values determined for the non-malignant and the tumor cells in breast (IC50 (184B5)/IC50 (MCF-7)) and lung (IC50 (BEAS-2B)/IC50 (HTB-54)) cell lines. Data were obtained from at least three independent experiments performed in triplicates.
# MDA-MB-231 cells = test: MTT cell viability assay, MDA-MB-231; assay type: cell-based; conditions: Homo sapiens, MDA-MB-231, 48 h, read-out: Cell growth % at 10 µM, MDA-MB-231
# Procedure: as §1, §2, §3
# DU-145 cells = test: MTT cell viability assay, DU-145; assay type: cell-based; conditions: Homo sapiens, DU-145, 48 h, read-out: Cell growth % at 10 µM, DU-145
# Procedure: as §1, §2, §3
# HT-29 cells = test: MTT cell viability assay, HT-29; assay type: cell-based; conditions: Homo sapiens, HT-29, 10 µM, 48 h, read-out: Cell growth % at 10 µM, HT-29
# Procedure: as §1, §2, §3
# AChE = target: T1, AChE (Rattus norvegicus, UniProt P37136); test: AChE inhibition by Ellman's method (rat frontal cortex homogenate); assay type: biochemical; conditions: at 10^−6 M, Ellman's method
# T1 construct: from tissue; host or cells: frontal cortex of male Wistar rats (crude homogenate)
# T1 sequence (P37136 32-614): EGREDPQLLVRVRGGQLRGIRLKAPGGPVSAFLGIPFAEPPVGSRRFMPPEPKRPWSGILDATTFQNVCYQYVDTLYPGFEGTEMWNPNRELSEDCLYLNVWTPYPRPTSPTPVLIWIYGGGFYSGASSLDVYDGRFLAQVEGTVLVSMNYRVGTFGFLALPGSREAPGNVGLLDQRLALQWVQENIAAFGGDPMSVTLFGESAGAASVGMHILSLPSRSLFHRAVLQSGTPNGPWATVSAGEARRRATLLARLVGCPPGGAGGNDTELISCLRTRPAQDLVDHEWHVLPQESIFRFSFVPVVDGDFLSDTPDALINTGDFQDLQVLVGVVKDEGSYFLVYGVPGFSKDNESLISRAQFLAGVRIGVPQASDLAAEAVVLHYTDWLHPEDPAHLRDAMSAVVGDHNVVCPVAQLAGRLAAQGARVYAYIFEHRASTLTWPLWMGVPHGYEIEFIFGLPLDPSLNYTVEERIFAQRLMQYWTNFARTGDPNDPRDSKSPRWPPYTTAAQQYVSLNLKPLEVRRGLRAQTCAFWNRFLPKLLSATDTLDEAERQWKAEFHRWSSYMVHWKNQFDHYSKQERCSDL
# Procedure: Frontal cortex tissue obtained from male Wistar rats was homogenized in 39 volumes of 75 mM sodium phosphate buffer (pH 7.4). A mixture of 260 μL containing the compounds assessed, acetylthiocholine iodide and 5 μL tissue homogenate was incubated for 8 min. The reaction was then terminated by adding 50 μL 3% (w/v) sodium dodecyl sulphate followed by 50 μL 0.2% (w/v) 5,5′-dithio-bis(2-nitrobenzoic) acid to produce the yellow anion of 5-thio-2-nitro-benzoic-acid. The extent of the color production was measured spectrophotometrically at 405 nm using Multiskan Ex (Thermo Electron Corporation). […] Results are expressed as the mean ± SD and each experiment was repeated three times.
SMILES,viability at 10 µM (HTB-54 cells) [%],viability at 10 µM (MDA-MB-231 cells) [%],viability at 10 µM (DU-145 cells) [%],viability at 10 µM (HT-29 cells) [%],inhibition at 1 µM (AChE) [%]
"C=CC[Se]C(=O)C12CC3CC(CC(C3)C1)C2 [Compound 1a, Se-allyl adamantane-1-carboselenoate]",72.1 ± 8.1,92.6 ± 12.7,> 100,91 ± 3.6,19.3 ± 4.1
"C#CC[Se]C(=O)C12CC3CC(CC(C3)C1)C2 [Compound 1b, Se-prop-2-ynyl adamantane-1-carboselenoate]",86 ± 11.6,71.3 ± 8,62.7 ± 7.7,87.9 ± 12.1,18 ± 7.9
"C=CC[Se]C(=O)c1ccccc1 [Compound 2a, Se-allyl benzoselenoate]",43.2 ± 9,37.9 ± 3.6,65.6 ± 5.6,85.3 ± 19.4,22.6 ± 1.6
"C#CC[Se]C(=O)c1ccccc1 [Compound 2b, Se-prop-2-ynyl benzoselenoate]",78.3 ± 11.4,79.3 ± 18.7,72.9 ± 13.6,78.3 ± 6.9,26.9 ± 7.3
"C=CC[Se]C(=O)c1ccccc1Cl [Compound 3a, Se-allyl 2-chlorobenzoselenoate]",37.5 ± 7.3,29.7 ± 6.4,39.8 ± 6.3,63.2 ± 16.9,21.5 ± 7.5
"C#CC[Se]C(=O)c1ccccc1Cl [Compound 3b, Se-prop-2-ynyl 2-chlorobenzoselenoate]",> 100,93.2 ± 10.2,41.6 ± 3.5,81.8 ± 15.2,23.7 ± 9
"C=CC[Se]C(=O)c1ccc2c(c1)OCO2 [Compound 4a, Se-allyl benzodioxole-5-carboselenoate]",67.6 ± 15.1,97.3 ± 10.4,> 100,33.6 ± 12.6,2.5 ± 9.3
"C=CC[Se]C(=O)/C=C/c1ccccc1 [Compound 5a, Se-allyl 3-phenylprop-2E-eneselenoate]",46.1 ± 5.6,91.1 ± 16.8,83.3 ± 7.8,87.6 ± 7.9,8.7 ± 4.9
"C#CC[Se]C(=O)/C=C/c1ccccc1 [Compound 5b, Se-prop-2-ynyl 3-phenylprop-2E-eneselenoate]",79.8 ± 7.7,64.8 ± 14.7,70.5 ± 11.5,80.8 ± 8.5,26 ± 3.7
"C=CC[Se]C(=O)CCc1ccccc1 [Compound 6a, Se-allyl 3-phenylpropaneselenoate]",36.3 ± 7,35.9 ± 2.6,26.9 ± 4.4,63.7 ± 12.3,18.7 ± 12.4
"C#CC[Se]C(=O)CCc1ccccc1 [Compound 6b, Se-prop-2-ynyl 3-phenylpropaneselenoate]",83.4 ± 7.7,78.9 ± 8.4,76.6 ± 12,,24.5 ± 6.7
"C=CC[Se]C(=O)c1cccnc1 [Compound 7a, Se-allyl pyridine-3-carboselenoate]",22 ± 5.1,35.3 ± 6.4,51.7 ± 9.8,64.3 ± 14.1,13.6 ± 5.5
"C#CC[Se]C(=O)c1cccnc1 [Compound 7b, Se-prop-2-ynyl pyridine-3-carboselenoate]",91.4 ± 6.6,91.3 ± 8.3,54.6 ± 4.5,> 100,24.9 ± 2.2
"C=CC[Se]C(=O)c1cccnc1Cl [Compound 8a, Se-allyl 2-chloropyridine-3-carboselenoate]",25.8 ± 5.2,37.1 ± 4.7,49.5 ± 6.6,62.2 ± 16.1,6.3 ± 4.1
"C#CC[Se]C(=O)c1cccnc1Cl [Compound 8b, Se-prop-2-ynyl 2-chloropyridine-3-carboselenoate]",99.4 ± 16.2,92.9 ± 16.5,77.1 ± 13.9,87.7 ± 10.1,17.1 ± 10.1
"C=CC[Se]C(=O)c1cccs1 [Compound 9a, Se-allyl thiophene-2-carboselenoate]",64.8 ± 8.5,89.4 ± 4.9,48.6 ± 6.2,99.5 ± 8.3,25.9 ± 2.4
"C#CC[Se]C(=O)c1cccs1 [Compound 9b, Se-prop-2-ynyl thiophene-2-carboselenoate]",58.9 ± 7.8,70.2 ± 6.9,22.3 ± 2.7,76 ± 13.5,20.6 ± 2.7
"C#CC[Se]C(=O)c1sccc1Cl [Compound 10b, Se-prop-2-ynyl 3-chlorothiophene-2-carboselenoate]",81.2 ± 11.6,62.5 ± 7.7,66.6 ± 8.7,80.2 ± 10.9,24.4 ± 7.1
"C=CC[Se]C(=O)c1ccco1 [Compound 11a, Se-allyl 4-furan-2-carboselenoate]",30.7 ± 6.2,34.1 ± 10.6,35.3 ± 5.8,79.8 ± 16.3,18.6 ± 2.8
"C#CC[Se]C(=O)c1ccco1 [Compound 11b, Se-prop-2-ynyl furan-2-carboselenoate]",75.4 ± 15.5,99 ± 11.2,70 ± 4.5,> 100,27.2 ± 4.1
"C=CC[Se]C(=O)c1ccno1 [Compound 12a, Se-allyl isoxazole-5-carboselenoate]",95.5 ± 5.9,96.8 ± 15.8,62.7 ± 4.7,70.7 ± 10.7,4.2 ± 6.7
